Data taken from patent US7662832B2, “Pyrrolo[2,3-c]pyridine derivatives and processes for the preparation thereof” (priority 2004, dated 2010).
Counter-ions that a name gives are not always drawn.

Each compound was assayed against Proton Pump (H^+/K^+-ATPase) (Sus scrofa, UniProt P19156) (assay: Inhibitory effects on proton pump (H^+/K^+-ATPase) activity). Settings: hog gastric vesicles; K^+ stimulated H^+/K^+-ATPase activity; 30 minutes at 37° C.
Assay type: biochemical

Proton Pump (H^+/K^+-ATPase), sequence (P19156 2-1034 limits assumed): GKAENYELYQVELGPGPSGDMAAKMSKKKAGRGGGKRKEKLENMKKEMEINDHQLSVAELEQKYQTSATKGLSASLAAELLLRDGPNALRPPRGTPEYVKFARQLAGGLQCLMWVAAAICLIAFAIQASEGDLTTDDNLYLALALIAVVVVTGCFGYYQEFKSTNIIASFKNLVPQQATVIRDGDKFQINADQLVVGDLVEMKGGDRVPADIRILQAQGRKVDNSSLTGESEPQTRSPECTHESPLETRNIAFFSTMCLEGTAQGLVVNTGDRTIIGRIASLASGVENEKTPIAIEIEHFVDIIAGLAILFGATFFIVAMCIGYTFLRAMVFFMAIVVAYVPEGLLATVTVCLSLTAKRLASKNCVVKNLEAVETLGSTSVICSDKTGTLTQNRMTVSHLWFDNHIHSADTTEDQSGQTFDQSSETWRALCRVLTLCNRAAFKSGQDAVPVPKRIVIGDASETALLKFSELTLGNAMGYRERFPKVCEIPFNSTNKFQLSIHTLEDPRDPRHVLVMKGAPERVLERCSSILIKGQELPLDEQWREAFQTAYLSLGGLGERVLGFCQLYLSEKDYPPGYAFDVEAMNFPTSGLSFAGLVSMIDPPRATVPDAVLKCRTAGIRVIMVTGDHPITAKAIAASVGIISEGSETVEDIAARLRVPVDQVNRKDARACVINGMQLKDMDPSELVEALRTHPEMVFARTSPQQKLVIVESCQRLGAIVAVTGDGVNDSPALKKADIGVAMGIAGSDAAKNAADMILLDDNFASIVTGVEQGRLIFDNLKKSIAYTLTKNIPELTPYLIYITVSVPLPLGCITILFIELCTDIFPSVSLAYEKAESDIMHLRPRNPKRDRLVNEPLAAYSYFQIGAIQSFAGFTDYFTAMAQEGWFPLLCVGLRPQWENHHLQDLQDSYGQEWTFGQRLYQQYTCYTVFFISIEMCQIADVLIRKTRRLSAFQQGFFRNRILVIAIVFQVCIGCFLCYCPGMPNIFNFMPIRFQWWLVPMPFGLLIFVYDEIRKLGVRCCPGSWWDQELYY
Proton Pump (H^+/K^+-ATPase), sequence (P18434 whole entry partner): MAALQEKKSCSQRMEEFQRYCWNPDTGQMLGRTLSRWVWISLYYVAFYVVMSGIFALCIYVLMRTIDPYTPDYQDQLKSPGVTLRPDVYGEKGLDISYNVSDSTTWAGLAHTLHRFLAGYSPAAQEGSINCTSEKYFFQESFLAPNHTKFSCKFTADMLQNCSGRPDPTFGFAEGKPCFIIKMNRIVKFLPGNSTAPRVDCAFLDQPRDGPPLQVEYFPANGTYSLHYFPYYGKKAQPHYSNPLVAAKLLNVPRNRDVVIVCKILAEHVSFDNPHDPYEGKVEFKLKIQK

**Q.** For `C=CCCn1c(C)c(C)c2ccnc(N(C)Cc3ccc(F)cc3)c21` [Example 157, 1-(but-3-enyl)-7-[N-(4-fluorobenzyl)-N-methyl]amino-2,3-dimethyl-1H-pyrrolo[2,3-c]pyridine hydrochloride], which IC50 is on record?
**A.** 380 nM

**Q.** How did the IC50 turn out when `Cc1c(C)n(CC2OCCO2)c2c(N(C)Cc3ccc(F)cc3)nccc12` [Example 158, 1-(1,3-dioxolan-2-ylmethyl)-7-[N-(4-fluorobenzyl)-N-methyl]amino-2,3-dimethyl-1H-pyrrolo[2,3-c]pyridine hydrochloride] was run?
**A.** 270 nM

**Q.** How did the IC50 turn out when `Cc1c(C)n(Cc2cccc(F)c2)c2c(N(C)Cc3ccc(F)cc3)nccc12` [Example 159, 1-(3-fluorobenzyl)-7-[N-(4-fluorobenzyl)-N-methyl]amino-2,3-dimethyl-1H-pyrrolo[2,3-c]pyridine hydrochloride] was run?
**A.** 90 nM

**Q.** How did the IC50 turn out when `Cc1[nH]c2c(NCc3ccccc3)nccc2c1C` [Example 175, 7-benzylamino-2,3-dimethyl-1H-pyrrolo[2,3-c]pyridine hydrochloride] was run?
**A.** 80 nM

**Q.** Which IC50 does the source give for `C=CCn1c(C)c(C)c2ccnc(NCc3ccccc3)c21` [Example 176, 1-allyl-7-benzylamino-2,3-dimethyl-1H-pyrrolo[2,3-c]pyridine hydrochloride] here?
**A.** 260 nM

**Q.** For `C=CCCn1c(C)c(C)c2ccnc(NCc3ccccc3)c21` [Example 181, 7-benzylamino-1-(but-3-enyl)-2,3-dimethyl-1H-pyrrolo[2,3-c]pyridine hydrochloride], which IC50 is on record?
**A.** 360 nM

**Q.** Which IC50 does the source give for `CC=CCn1c(C)c(C)c2ccnc(NCc3ccccc3)c21` [Example 183, 7-benzylamino-1-(but-2-enyl)-2,3-dimethyl-1H-pyrrolo[2,3-c]pyridine hydrochloride] here?
**A.** 220 nM

**Q.** For `Cc1c(C)n(CC(C)C)c2c(NCc3ccccc3)nccc12` [Example 184, 7-benzylamino-1-isobutyl-2,3-dimethyl-1H-pyrrolo[2,3-c]pyridine hydrochloride], which IC50 is on record?
**A.** 240 nM

**Q.** `Cc1c(C)n(CC2CC2)c2c(NCc3ccccc3)nccc12` [Example 185, 7-benzylamino-1-cyclopropylmethyl-2,3-dimethyl-1H-pyrrolo[2,3-c]pyridine hydrochloride] was tested. Which IC50 did it give?
**A.** 320 nM

**Q.** How did the IC50 turn out when `Cc1ccc(CNc2nccc3c(C)c(C)n(CC(C)C)c23)cc1` [Example 198, 1-isobutyl-2,3-dimethyl-7-(4-methylbenzylamino)-1H-pyrrolo[2,3-c]pyridine hydrochloride] was run?
**A.** 64 nM

**Q.** With `Cc1ccc(CNc2nccc3c(C)c(C)n(CC4CC4)c23)cc1` [Example 204, 1-cyclopropylmethyl-2,3-dimethyl-7-(4-methylbenzylamino)-1H-pyrrolo[2,3-c]pyridine hydrochloride] as the compound, how does the IC50 read?
**A.** 210 nM

**Q.** With `CCCn1c(C)c(C)c2ccnc(NCc3ccc(C)cc3)c21` [Example 205, 2,3-dimethyl-7-(4-methylbenzylamino)-1-propyl-1H-pyrrolo[2,3-c]pyridine hydrochloride] as the compound, how does the IC50 read?
**A.** 330 nM

**Q.** How did the IC50 turn out when `Cc1c(C)n(CC(C)C)c2c(NCc3ccc(Cl)cc3)nccc12` [Example 209, 7-(4-chlorobenzylamino)-1-isobutyl-2,3-dimethyl-1H-pyrrolo[2,3-c]pyridine hydrochloride] was run?
**A.** 66 nM

**Q.** `COCCn1c(C)c(C)c2ccnc(NCc3ccccc3C)c21` [Example 213, 1-(2-methoxyethyl)-2,3-dimethyl-7-(2-methylbenzylamino)-1H-pyrrolo[2,3-c]pyridine hydrochloride] was tested. Which IC50 did it give?
**A.** 310 nM

**Q.** Which IC50 does the source give for `Cc1c(C)n(Cc2ccccc2)c2c(NCc3ccc(F)cc3)nccc12` [Example 214, 1-benzyl-7-(4-fluorobenzylamino)-2,3-dimethyl-1H-pyrrolo[2,3-c]pyridine hydrochloride] here?
**A.** 290 nM

**Q.** Which IC50 does the source give for `Cc1c(C)n(Cc2ccccc2)c2c(NCc3ccc(Cl)cc3)nccc12` [Example 215, 1-benzyl-7-(4-chlorobenzylamino)-2,3-dimethyl-1H-pyrrolo[2,3-c]pyridine hydrochloride] here?
**A.** 420 nM

**Q.** How did the IC50 turn out when `Cc1ccccc1CNc1nccc2c(C)c(C)n(Cc3ccccc3)c12` [Example 216, 1-benzyl-2,3-dimethyl-7-(2-methylbenzylamino)-1H-pyrrolo[2,3-c]pyridine hydrochloride] was run?
**A.** 260 nM

**Q.** How did the IC50 turn out when `Cc1ccccc1CNc1nccc2c(C)c(C)n(Cc3ccc(F)cc3)c12` [Example 219, 1-(4-fluorobenzyl)-2,3-dimethyl-7-(2-methylbenzylamino)-1H-pyrrolo[2,3-c]pyridine hydrochloride] was run?
**A.** 1240 nM

**Q.** For `Cc1ccc(Cn2c(C)c(C)c3ccnc(NCc4ccc(F)cc4)c32)cc1` [Example 220, 7-(4-fluorobenzylamino)-2,3-dimethyl-1-(4-methylbenzyl)-1H-pyrrolo[2,3-c]pyridine hydrochloride], which IC50 is on record?
**A.** 430 nM

**Q.** With `Cc1ccc(Cn2c(C)c(C)c3ccnc(NCc4ccc(Cl)cc4)c32)cc1` [Example 221, 7-(4-chlorobenzylamino)-2,3-dimethyl-1-(4-methylbenzyl)-1H-pyrrolo[2,3-c]pyridine hydrochloride] as the compound, how does the IC50 read?
**A.** 630 nM

**Q.** For `CCn1c(C)c(C)c2ccnc(NCc3ccc(F)cc3)c21` [Example 223, 1-ethyl-7-(4-fluorobenzylamino)-2,3-dimethyl-1H-pyrrolo[2,3-c]pyridine hydrochloride], which IC50 is on record?
**A.** 440 nM

**Q.** With `CCn1c(C)c(C)c2ccnc(NCc3ccccc3C)c21` [Example 225, 1-ethyl-2,3-dimethyl-7-(2-methylbenzylamino)-1H-pyrrolo[2,3-c]pyridine hydrochloride] as the compound, how does the IC50 read?
**A.** 350 nM

**Q.** With `Cc1c(C)n(CC2CC2)c2c(NCc3ccc(F)cc3)nccc12` [Example 226, 1-cyclopropylmethyl-7-(4-fluorobenzylamino)-2,3-dimethyl-1H-pyrrolo[2,3-c]pyridine hydrochloride] as the compound, how does the IC50 read?
**A.** 70 nM

**Q.** With `Cc1c(C)n(CC2CC2)c2c(NCc3ccc(Cl)cc3)nccc12` [Example 227, 7-(4-chlorobenzylamino)-1-cyclopropylmethyl-2,3-dimethyl-1H-pyrrolo[2,3-c]pyridine hydrochloride] as the compound, how does the IC50 read?
**A.** 73 nM

**Q.** For `CCCn1c(C)c(C)c2ccnc(NCc3ccc(F)cc3)c21` [Example 228, 7-(4-fluorobenzylamino)-2,3-dimethyl-1-propyl-1H-pyrrolo[2,3-c]pyridine hydrochloride], which IC50 is on record?
**A.** 133 nM

**Q.** For `CCCn1c(C)c(C)c2ccnc(NCc3ccccc3C)c21` [Example 230, 2,3-dimethyl-7-(2-methylbenzylamino)-1-propyl-1H-pyrrolo[2,3-c]pyridine hydrochloride], which IC50 is on record?
**A.** 92 nM

**Q.** How did the IC50 turn out when `CCCn1c(C)c(C)c2ccnc(NCc3ccccc3Cl)c21` [Example 231, 7-(2-chlorobenzylamino)-2,3-dimethyl-1-propyl-1H-pyrrolo[2,3-c]pyridine hydrochloride] was run?
**A.** 138 nM

**Q.** How did the IC50 turn out when `C=Cc1ccc(-c2nccc3c(C)c(C)[nH]c23)cc1` [Example 242, 2,3-dimethyl-7-(4-vinylphenyl)-1H-pyrrolo[2,3-c]pyridine] was run?
**A.** 100 nM

**Q.** Which IC50 does the source give for `C=Cc1ccc(-c2nccc3c(C)c(C)n(Cc4cccc(F)c4)c23)cc1` [Example 243, 1-(3-fluorobenzyl)-2,3-dimethyl-7-(4-vinylphenyl)-1H-pyrrolo[2,3-c]pyridine hydrochloride] here?
**A.** 90 nM

**Q.** With `C=Cc1ccc(-c2nccc3c(C)c(C)n(Cc4ccc(C)cc4)c23)cc1` [Example 244, 2,3-dimethyl-1-(4-methylbenzyl)-7-(4-vinylphenyl)-1H-pyrrolo[2,3-c]pyridine hydrochloride] as the compound, how does the IC50 read?
**A.** 90 nM

**Q.** With `C=CCn1c(C)c(C)c2ccnc(-c3ccc(C=C)cc3)c21` [Example 245, 1-allyl-2,3-dimethyl-7-(4-vinylphenyl)-1H-pyrrolo[2,3-c]pyridine hydrochloride] as the compound, how does the IC50 read?
**A.** 100 nM

**Q.** `C=Cc1ccc(-c2nccc3c(C)c(C)n(Cc4ccccc4)c23)cc1` [Example 246, 1-benzyl-2,3-dimethyl-7-(4-vinylphenyl)-1H-pyrrolo[2,3-c]pyridine hydrochloride] was tested. Which IC50 did it give?
**A.** 110 nM

**Q.** `C=Cc1ccc(-c2nccc3c(C)c(C)n(CCOC)c23)cc1` [Example 247, 1-(2-methoxyethyl)-2,3-dimethyl-7-(4-vinylphenyl)-1H-pyrrolo[2,3-c]pyridine hydrochloride] was tested. Which IC50 did it give?
**A.** 90 nM

**Q.** For `C#CCn1c(C)c(C)c2ccnc(-c3ccc(C=C)cc3)c21` [Example 249, 2,3-dimethyl-1-(prop-2-ynyl)-7-(4-vinylphenyl)-1H-pyrrolo[2,3-c]pyridine hydrochloride], which IC50 is on record?
**A.** 50 nM

**Q.** With `C=Cc1ccc(-c2nccc3c(C)c(C)n(CC)c23)cc1` [Example 251, 1-ethyl-2,3-dimethyl-7-(4-vinylphenyl)-1H-pyrrolo[2,3-c]pyridine hydrochloride] as the compound, how does the IC50 read?
**A.** 460 nM

**Q.** How did the IC50 turn out when `C=Cc1ccc(-c2nccc3c(C)c(C)n(Cc4cccc(OC)c4)c23)cc1` [Example 253, 2,3-dimethyl-1-(3-methoxybenzyl)-7-(4-vinylphenyl)-1H-pyrrolo[2,3-c]pyridine hydrochloride] was run?
**A.** 170 nM

**Q.** `C=Cc1ccc(-c2nccc3c(C)c(C)n(CCC(C)C)c23)cc1` [Example 256, 2,3-dimethyl-1-(3-methylbutyl)-7-(4-vinylphenyl)-1H-pyrrolo[2,3-c]pyridine hydrochloride] was tested. Which IC50 did it give?
**A.** 310 nM

**Q.** Which IC50 does the source give for `C=Cc1ccc(-c2nccc3c(C)c(C)n(Cc4ccc5ccccc5c4)c23)cc1` [Example 257, 2,3-dimethyl-1-(naphthalen-2-ylmethyl)-7-(4-vinylphenyl)-1H-pyrrolo[2,3-c]pyridine hydrochloride] here?
**A.** 270 nM

**Q.** For `C=Cc1ccc(-c2nccc3c(C)c(C)n(Cc4ccc(F)cc4)c23)cc1` [Example 258, 2,3-dimethyl-1-(4-fluorobenzyl)-7-(4-vinylphenyl)-1H-pyrrolo[2,3-c]pyridine hydrochloride], which IC50 is on record?
**A.** 330 nM

**Q.** Which IC50 does the source give for `CSc1ccc(-c2nccc3c(C)c(C)[nH]c23)cc1` [Example 262, 2,3-dimethyl-7-(4-methylsulfanylphenyl)-1H-pyrrolo[2,3-c]pyridine] here?
**A.** 220 nM

**Q.** Which IC50 does the source give for `C=CCn1c(C)c(C)c2ccnc(-c3ccc(SC)cc3)c21` [Example 263, 1-allyl-2,3-dimethyl-7-(4-methylsulfanylphenyl)-1H-pyrrolo[2,3-c]pyridine hydrochloride] here?
**A.** 75 nM

**Q.** With `COCCn1c(C)c(C)c2ccnc(-c3ccc(SC)cc3)c21` [Example 264, 1-(2-methoxyethyl)-2,3-dimethyl-7-(4-methylsulfanylphenyl)-1H-pyrrolo[2,3-c]pyridine hydrochloride] as the compound, how does the IC50 read?
**A.** 490 nM
